Laboratory results as given in US20130237590A1, “ASSESSING THYROID NEOPLASMS” (MAYO FOUNDATION FOR MEDICAL EDUCATION AND RESEARCH, priority 2010, published 2013).

How the values were obtained:
[1] = test system: miR-122; assay: miR-122 quantitation by quantitative RT-PCR in WRO cells; assay type: cell-based; settings: WRO-vector cells treated with 10 μM GW9662 for 24 hours
Method: (§1) To generate stable lines, cells were seeded at 1×10^6 cells per 100 mm petri dish and transfected 24 hours later in multiples of six, with 10 μg each of vector or PPFP using LT-1 (Minus Bio, Madison, Wis.). For the generation of DN-PPARγ and miR stable cells, the DN-PPARγ construct (Reddi et al., Expression of the PAX8/PPARγ Fusion Protein Is Associated with Decreased Neovascularization In Vivo: Impact on Tumorigenesis and Disease Prognosis, Genes and Cancer, (2010)), mmu-Null, and mmu-miR122-EGFP constructs (Cellbio labs) were used. After 72 hours, WRO-Vector, WRO-PPFP, WRO-DN-PPARγ, FTC-Vector, and FTC−PPFP cells were obtained by selection in media containing 400 μg/mL of G418 (Invitrogen) with media changes every 72 hours. WRO-miR-Null and WRO-miR-122 cells were generated using 2.5 μg/mL puromycin selection. Pools of cells were harvested and analyzed for mRNA and microRNA expression by quantitative RT-PCR and for polypeptide expression by Western blotting.
(§2) RNA from each group of cells was isolated using TriZol Reagent (Invitrogen). […] PAX8/PPARγ fusion gene was detected by PCR using 5 μL of cDNA and a sense primer from exon 7 of PAX8 (5′-CGCGGATCCGCATT-GACTCACAGAGCA-3; SEQ ID NO:1; see, also, GenBank Accession No. NM_013953 and GI No.81295803) and antisense primer from exon 1 of PPARγ1 (5′-[…]-3; SEQ ID NO:2; GenBank Accession No. NM_138712 and GI No. 116284369). […]

[2] = test system: PPARγ; assay: PPRE luciferase reporter assay in WRO cells; assay type: cell-based
Method: (§3) Cells (0.3×10^6 cells/well) in six well plates were transfected using LT-1 reagent (Mirus, Madison Wis.) with 10 ng of Renilla (Promega, Madison, Wis.) and […] of PPRE-Aco-Luc reporter in triplicate. After 24 hours, cells were lysed and assayed using the dual luciferase kit (Promega). Data was calculated as a ratio of the luciferase to renilla expression and plotted as fold-change compared to vector. To test the effect of GW9662 on PPARγ activity, cells were treated 18 hours post transfection with either 2 μL DMSO or 10 μM GW9662 (a potent antagonist of PPARγ) for 24 hours prior to harvest and assay.

[3] = test system: WRO cells; assay: in vitro cell growth of stable WRO cells (absorbance at 490 nm); assay type: cell-based; settings: stable WRO cells compared to WRO-vector cells; 72 hours
Method: as §1

[4] = test system: WRO cells; assay: in vivo xenograft tumor formation assay, WRO stable cells; set-up: species or system athymic nude mice; settings: WRO-PPFP cells, by 5 weeks
Method: (§4) Stable cells (10^7) were resuspended in 100 μL of growth media and injected subcutaneously into both flanks of 5 week-old athymic nude mice (Fox1^nu/nu, Harlan, Indianapolis, Ind.). At least three mice were injected per group. Tumor size was determined weekly by measuring tumor length (L), width (W), and height (H) using vernier calipers (Vtumor=0.5236 LWH).

[5] = test system: FTC-133 cells; assay: in vivo xenograft tumor formation assay, FTC-133 stable cells; set-up: species or system athymic nude mice; settings: FTC-133-PPFP cells (PTEN-null); by 4 weeks; vs vector only
Method: as §4

[6] = test system: miR-122; assay: miR-122 quantitation in WRO xenografts; assay type: in vivo, athymic nude mice
Method: RNA from each group of cells was isolated using TriZol Reagent (Invitrogen). RNA (1 μg) was reverse transcribed with oligo-dT primers using Message Sensor RT kit (Ambion, Austin, Tex.). PAX8/PPARγ fusion gene was detected by PCR using 5 μL of cDNA and a sense primer from exon 7 of PAX8 (5′-CGCGGATCCGCATT-GACTCACAGAGCA-3; SEQ ID NO:1; see, also, GenBank Accession No. NM_013953 and GI No.81295803) and antisense primer from exon 1 of PPARγ1 (5′-[…]-3; SEQ ID NO:2; GenBank Accession No. NM_138712 and GI No. 116284369). Glyceraldehyde 3-phosphate dehydrogenase (GAPDH) was amplified using kit primers. Xenografts were harvested at weeks 1 and 2 post induction and homogenized in T-PER (Pierce, Rockford, Ill.). RNA was extracted, and RT-PCR was performed for PPFP and GAPDH. Annealing temperature for PPFP and GAPDH was 55° C. for 30 seconds. miR-122 status was verified using TaqMan microRNA assays (Applied Biosystems) as per the manufacturer's instructions.
as §4

[7] = test system: miR-122; assay: miR-122 quantitation in FTC-133 cells; assay type: cell-based
Method: as §1, §2

[8] = test system: PPARγ; assay: PPRE luciferase reporter assay in FTC-133 cells; assay type: cell-based; settings: FTC-133-PPFP cells
Method: as §3

[9] = test system: ADAM-17; assay: ADAM-17 transcript levels in WRO cells; assay type: cell-based; settings: stable WRO cells
[10] = test system: ADAM-17; assay: ADAM-17 transcript levels in immortalized thyrocytes; assay type: cell-based; settings: immortalized thyrocytes (N-Thy-ori cells) expressing PPFP
[11] = test system: CD-31; assay: microvessel density by CD-31 staining of WRO xenografts; assay type: in vivo, athymic nude mice; settings: WRO xenografts compared to control xenografts
Method: Four tumors per group were formalin-fixed, paraffin-embedded, and individual sections stained with CD-31 (sc-1506-R, Santa Cruz, 1:200 dilution) specific antibody for 30-60 minutes and counterstained with hematoxylin. Antigen retrieval was done in EDTA at […] for 30 minutes after deparaffinization. Sections were blocked with peroxidase for 5 minutes and protein for 5 minutes. Antibody staining was visualized using Dako Envision plus System for 15 minutes followed by DAB chromogen for 10 minutes. Separate tumor sections were stained with hematoxylin and eosin to visualize tumor histology.
Stained slides were scanned using the Hamamatsu NanoZoomer (Bacus Laboratories, Inc., Chicago, Ill.). Digital images composed of multiple tiles (4096×64 pixel) were captured at 20× magnification. Image analysis was conducted as described elsewhere (Monahan et al., Endocrinology 150:4386-4394 (2009)). For each tumor section, the relative signal intensity from 10 randomly chosen fields (205×300 pixel) was quantified by histogram analysis (Adobe Photoshop). Data was expressed as signal intensity (signal pixel count divided by total image pixel count).

[12] = test system: ARO cells; assay: in vivo xenograft tumor formation assay, ARO colon cancer cells; set-up: species or system athymic nude mice; settings: ARO-PPFP colon cancer cells; by 4 weeks
Method: (§5) To generate stable lines, cells were seeded at 1×10^6 cells per 100 mm petri dish and transfected 24 hours later in multiples of six, with 10 μg each of vector or PPFP using LT-1 (Minus Bio, Madison, Wis.). After 72 hours, ARO-Vector, ARO-PPFP, DRO-Vector, DRO-PPFP, FRO-Vector, FRO-PPFP, KTC-3-Vector, and KTC-3-PPFP cells were obtained by selection in media containing 400 μg/mL of G418 (Invitrogen) with media changes every 72 hours. Pools of cells were harvested and analyzed for PPFP expression by reverse transcriptase PCR.
as §4, with “(Fox1^nu/nu” for “(Fox1^nu/nu,”

[13] = test system: DRO cells; assay: in vivo xenograft tumor formation assay, DRO melanoma cells; set-up: species or system athymic nude mice; settings: DRO-PPFP melanoma cells; by 6 weeks
Method: as §5
as §4, with “(Fox1^nu/nu” for “(Fox1^nu/nu,”

[14] = test system: FRO cells; assay: in vivo xenograft tumor formation assay, FRO anaplastic thyroid cancer cells; set-up: species or system athymic nude mice; settings: FRO-PPFP anaplastic thyroid cancer cells; in 5 weeks
Method: as §5
as §4, with “(Fox1^nu/nu” for “(Fox1^nu/nu,”

[15] = test system: KTC-3 cells; assay: in vivo xenograft tumor formation assay, KTC-3 anaplastic thyroid cancer cells; set-up: species or system athymic nude mice; settings: KTC-3-PPFP anaplastic thyroid cancer cells; in 6 weeks
Method: as §5
as §4, with “(Fox1^nu/nu” for “(Fox1^nu/nu,”

O=C(Nc1ccccc1)c1cc([N+](=O)[O-])ccc1Cl [GW9662, reference compound]
miR-122 expression [1]: not accompanied by increased miR-122 expression
PPRE activity ([2]; WRO-vector cells treated with 10 μM GW9662 for 24 hours): significant decrease in PPRE activity

PPFP: PAX8/PPARγ fusion protein, constitutively expressed from a CMV promoter construct in stably transfected cancer cell lines
decrease (inhibition) of in vitro cell growth [3]: 19%
inhibition of xenograft tumor progression [4]: 72%
inhibition of xenograft tumor progression ([4]; vs vector only): 9 fold
inhibition of xenograft tumor progression [5]: < 2 fold
increase in miR-122 expression [6]: 40.0 (p < 0.054) fold
miR-122 expression ([7]; FTC-133(+PPFP) cells (PTEN-null)): did not increase miR-122 expression
inhibition of PPARγ activity (activation of PPRE) ([2]; stable WRO cells vs vector): 29%
inhibition of activation of PPRE [8]: 69%
reduction of ADAM-17 mRNA expression [9]: 50%
reduction of ADAM-17 mRNA expression [10]: not
decrease in microvessel density (CD-31 staining) [11]: 2.1 fold
inhibition of xenograft tumor progression [12]: 39.5%
inhibition of xenograft tumor progression [13]: 57.5%
inhibition of xenograft tumor progression [14]: 80.1%
inhibition of xenograft tumor progression [15]: 77.2%

PTEN: PTEN transiently expressed from an expression plasmid in FTC-133 cells [reference compound]
increase in miR-122 expression ([7]; transient expression of PTEN in FTC-133(+PPFP) cells vs vector only cells): 77 fold
